Source: paper PMC6099706, “Anti-Mycobacterium tuberculosis Activity of Esters of Quinoxaline 1,4-Di-N-Oxide” (Molecules : A Journal of Synthetic Chemistry and Natural …, 2018)
Converted amounts (≈) assume the structure as drawn.

Key:
[1] = tested on: Mycobacterium tuberculosis strain H37Rv; test: microplate Alamar blue assay (MABA); format: cell-based; details: for MIC: Mycobacterium tuberculosis, H37RV; for MIC / MABA MIC: M. tuberculosis H37Rv, lowest concentration effecting 90% inhibition; for MABA percentage in parentheses after the MIC bound: meaning not defined in the paper, printed beside the highest concentration
[2] = tested on: nonreplicating persistent (NRP) M. tuberculosis strain; test: microbe, parasite or virus in culture; format: cell-based, Mycobacterium tuberculosis; details: for MIC: Mycobacterium tuberculosis, read-out: LORA MIC; for LORA percentage in parentheses after the MIC bound: meaning not defined in the paper, printed beside the highest concentration
[3] = biological target: M. tuberculosis gyrase (GyrA and Gyr B subunits) (Mycobacterium tuberculosis, UniProt P9WG45+P9WG47); test: M. tuberculosis gyrase supercoiling assay; format: biochemical; details: at 50 μM
Description: The activity of the enzyme was determined prior to the testing of the quinoxaline 1,4-di-N-oxide derivatives and 1 U was defined as the amount of enzyme required to just fully supercoil the substrate under test conditions. Compounds were tested at 50 μM. Final DMSO concentration in the assays was 1% (v/v).
1 U of M. tuberculosis gyrase (GyrA and Gyr B subunits) (final concentration in assay 50 nM) was incubated with 0.5 μg of relaxed pBR322 DNA in a 30 μL reaction at 37 °C for 30 min under the following conditions: 50 mM HEPES. KOH (pH 7.9), 6 mM magnesium acetate, 4 mM DTT, 1 mM ATP, 100 mM potassium glutamate, 2 mM spermidine and 0.05 mg/mL albumin.
Each reaction was stopped by the addition of 30 μL chloroform/iso-amyl alcohol (26:1) and 20 μL Stop Dye (40% sucrose, 100 mM Tris.HCl (pH 7.5), 10 mM EDTA, 0.5 μg/mL bromophenol blue), before being loaded on a 1.0% TAE (Tris.acetate […], EDTA […]) gel run at 80 V for 2 h.
Bands were visualized by ethidium staining for 10 min, destained for 10 min in water, analyzed by gel documentation equipment (Syngene, Cambridge, UK), and quantified using Syngene software (Genetools version 4.00 (1997–1998), Syngene, A division of Synoptics Corp, Cambridge, UK).
Raw gel data (fluorescent band volumes) collected from Syngene’s GeneTools gel analysis software were converted to a % of the 100% control (the supercoiled enzyme plus DMSO control DNA band). These were analyzed using SigmaPlot Version 13.0 (Systat Software Inc., London, UK; 2016).

[4] = nonreplicating persistent strain

Sequence of M. tuberculosis gyrase (GyrA and Gyr B subunits) (P9WG45 whole entry): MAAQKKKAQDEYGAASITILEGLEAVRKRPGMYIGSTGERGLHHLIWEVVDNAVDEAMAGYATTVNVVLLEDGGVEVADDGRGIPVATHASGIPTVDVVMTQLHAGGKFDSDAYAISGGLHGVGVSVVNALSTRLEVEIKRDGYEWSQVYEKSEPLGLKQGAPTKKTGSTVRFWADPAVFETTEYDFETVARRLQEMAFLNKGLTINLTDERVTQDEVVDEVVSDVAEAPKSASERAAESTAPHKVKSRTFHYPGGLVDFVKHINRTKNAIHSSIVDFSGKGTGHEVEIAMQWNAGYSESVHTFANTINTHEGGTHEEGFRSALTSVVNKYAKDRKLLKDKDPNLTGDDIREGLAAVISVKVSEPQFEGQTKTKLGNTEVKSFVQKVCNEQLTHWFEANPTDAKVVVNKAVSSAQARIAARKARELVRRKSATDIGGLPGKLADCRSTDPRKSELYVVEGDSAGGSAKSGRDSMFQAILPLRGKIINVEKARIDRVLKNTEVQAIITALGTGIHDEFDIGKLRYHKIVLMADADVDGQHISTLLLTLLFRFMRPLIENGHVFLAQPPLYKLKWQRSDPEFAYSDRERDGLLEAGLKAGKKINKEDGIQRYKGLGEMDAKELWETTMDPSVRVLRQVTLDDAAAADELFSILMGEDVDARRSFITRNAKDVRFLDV
Sequence of M. tuberculosis gyrase (GyrA and Gyr B subunits) (P9WG47 whole entry): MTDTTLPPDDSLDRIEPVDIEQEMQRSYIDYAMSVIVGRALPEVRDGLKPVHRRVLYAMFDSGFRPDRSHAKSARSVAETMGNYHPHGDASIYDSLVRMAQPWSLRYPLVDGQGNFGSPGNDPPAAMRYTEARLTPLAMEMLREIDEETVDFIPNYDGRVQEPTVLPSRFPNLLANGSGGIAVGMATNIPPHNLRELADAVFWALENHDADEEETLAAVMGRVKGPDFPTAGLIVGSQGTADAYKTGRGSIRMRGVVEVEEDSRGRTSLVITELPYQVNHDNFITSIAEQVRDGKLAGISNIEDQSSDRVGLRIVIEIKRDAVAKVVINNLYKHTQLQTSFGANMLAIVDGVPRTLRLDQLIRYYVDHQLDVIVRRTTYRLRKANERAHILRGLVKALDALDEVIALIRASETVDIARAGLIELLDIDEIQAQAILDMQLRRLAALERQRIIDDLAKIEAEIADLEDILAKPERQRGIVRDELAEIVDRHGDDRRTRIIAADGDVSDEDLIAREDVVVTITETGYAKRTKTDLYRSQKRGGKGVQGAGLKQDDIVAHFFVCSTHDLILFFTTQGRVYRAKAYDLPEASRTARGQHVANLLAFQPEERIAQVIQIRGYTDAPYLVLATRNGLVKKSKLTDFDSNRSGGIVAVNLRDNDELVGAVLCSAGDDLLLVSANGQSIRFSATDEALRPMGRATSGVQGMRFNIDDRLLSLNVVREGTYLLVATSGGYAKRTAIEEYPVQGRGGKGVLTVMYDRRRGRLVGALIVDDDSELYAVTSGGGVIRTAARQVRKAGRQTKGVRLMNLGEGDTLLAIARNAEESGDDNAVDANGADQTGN

Row | Structure (SMILES) | MIC [1] [µg/mL] | MIC [2, 4] [µg/mL] | further results
1 | COC(=O)c1ccc2c(c1)[n+]([O-])c(C(=O)C(C)C)c(C(F)(F)F)[n+]2[O-] [Compound T-039] | 1.54 (≈ 4.3 µM) | 0.83 (≈ 2.32 µM) | 
2 | CCCOC(=O)c1ccc2c(c1)[n+]([O-])c(C(=O)OCC)c(C(=O)C(=O)OCC)[n+]2[O-] [Compound T-112] | 1.4 (≈ 3.33 µM) |  | 
3 | COC(=O)c1ccc2no[n+]([O-])c2c1 [Compound T-014] | 7.6 (≈ 39.1 µM) | 13 (≈ 66.9 µM) | 
4 | CCC(=O)c1c(C(F)(F)F)[n+]([O-])c2ccc(C(=O)OC)cc2[n+]1[O-] [Compound T-038] | < 0.4 |  | inhibitory effect on M. tuberculosis gyrase supercoiling [3]: none of the compounds showed an inhibitory effect
5 | COC(=O)c1ccc2c(c1)[n+]([O-])c(C(C)=O)c(C)[n+]2[O-] [Compound T-034] | 1.1 (≈ 3.98 µM) | 0.7 (≈ 2.53 µM) | 
6 | CCOC(=O)c1ccc2c(c1)[n+]([O-])c(C(=O)OCC)c(-c1ccccc1)[n+]2[O-] [Compound T-043] | 0.54 (≈ 1.41 µM) | 0.47 (≈ 1.23 µM) | 
7 | CCCOC(=O)c1ccc2c(c1)[n+]([O-])c(C(=O)c1ccccc1)c(C)[n+]2[O-] [Compound T-132] | 2.3 (≈ 6.28 µM) |  | 
8 | CCCOC(=O)c1ccc2c(c1)[n+]([O-])c(C(=O)c1ccccc1)c(C(F)(F)F)[n+]2[O-] [Compound T-115] | 1.5 (≈ 3.57 µM) |  | 
9 | CCCOC(=O)c1ccc2c(c1)[n+]([O-])c(C(=O)C(C)(C)C)c(C)[n+]2[O-] [Compound T-091] | > 100 |  | MABA percentage in parentheses after the MIC bound [1]: 33%
10 | COC(=O)c1ccc2c(c1)[n+]([O-])c(C(=O)c1ccccc1)c(C)[n+]2[O-] [Compound T-003] | 3.47 (≈ 10.3 µM) | 1.49 (≈ 4.4 µM) | inhibitory effect on M. tuberculosis gyrase supercoiling [3]: none of the compounds showed an inhibitory effect
11 | CCCOC(=O)c1ccc2c(c1)[n+]([O-])c(C(=O)OCC)c(C)[n+]2[O-] [Compound T-090] | 0.8 (≈ 2.39 µM) |  | 
12 | COC(=O)c1c(C)[n+]([O-])c2ccc(C(=O)OC(C)C)cc2[n+]1[O-] [Compound T-064] | 0.58 (≈ 1.81 µM) | 0.56 (≈ 1.75 µM) | inhibitory effect on M. tuberculosis gyrase supercoiling [3]: none of the compounds showed an inhibitory effect
13 | CCOC(=O)c1ccc2c(c1)[n+]([O-])c(C(=O)OCC)c(C)[n+]2[O-] [Compound T-015] | 0.5 (≈ 1.56 µM) | 0.49 (≈ 1.53 µM) | 
14 | CCCOC(=O)c1ccc2c(c1)[n+]([O-])c(C(=O)c1ccco1)c(C(F)(F)F)[n+]2[O-] [Compound T-114] | 2.9 (≈ 7.07 µM) |  | inhibitory effect on M. tuberculosis gyrase supercoiling [3]: none of the compounds showed an inhibitory effect
15 | CC(C)OC(=O)c1ccc2no[n+]([O-])c2c1 [Compound T-063] | 1.4 (≈ 6.3 µM) | 3.04 (≈ 13.7 µM) | 
16 | CCCOC(=O)c1ccc2c(c1)[n+]([O-])c(C(=O)OCC)c(C(F)(F)F)[n+]2[O-] [Compound T-124] | 3 (≈ 7.73 µM) |  | 
17 | CCOC(=O)Cc1c(C(=O)OCC)[n+]([O-])c2cc(C(=O)OC)ccc2[n+]1[O-] [Compound T-037] | 1.2 (≈ 3.17 µM) | 1.9 (≈ 5.02 µM) | 
18 | CCCOC(=O)c1ccc2c(c1)[n+]([O-])c(C(=O)Nc1ccccc1)c(C)[n+]2[O-] [Compound T-125] | 12.3 (≈ 32.3 µM) |  | inhibitory effect on M. tuberculosis gyrase supercoiling [3]: none of the compounds showed an inhibitory effect
19 | CC(C)OC(=O)c1ccc2c(c1)[n+]([O-])c(C(=O)C(C)(C)C)c(C(C)(C)C)[n+]2[O-] [Compound T-107] | 2.1 (≈ 5.41 µM) |  | 
20 | CCCOC(=O)c1ccc2c(c1)[n+]([O-])c(C(=O)C(C)C)c(C(F)(F)F)[n+]2[O-] [Compound T-111] | 1.5 (≈ 3.88 µM) |  | 
21 | CC(=O)c1c(C(F)(F)F)[n+]([O-])c2ccc(C(=O)OC(C)C)cc2[n+]1[O-] [Compound T-070] | ≤ 0.15 | 0.24 (≈ 0.67 µM) | 
22 | COC(=O)c1ccc2c(c1)[n+]([O-])c(C(=O)Nc1ccccc1)c(C)[n+]2[O-] [Compound T-012] | 1.07 (≈ 3.03 µM) | 0.86 (≈ 2.43 µM) | inhibitory effect on M. tuberculosis gyrase supercoiling [3]: none of the compounds showed an inhibitory effect

Row | Structure (SMILES) | MIC [1] [µg/mL] | MIC [2, 4] [µg/mL] | further results
23 | CCCOC(=O)c1ccc2c(c1)[n+]([O-])c(C(N)=O)c(C)[n+]2[O-] [Compound T-130] | 2.9 (≈ 9.5 µM) |  | 
24 | CC(C)OC(=O)c1ccc2c(c1)[n+]([O-])c(C(=O)c1ccco1)c(C(F)(F)F)[n+]2[O-] [Compound T-073] | 0.7 (≈ 1.71 µM) | 0.6 (≈ 1.46 µM) | 
25 | [O-][n+]1onc2ccccc21 [Compound T-046] |  |  | MABA MIC [1]: 58.5 µg/mL; LORA MIC [2, 4]: 46.97 µg/mL
26 | NNC(=O)c1ccncc1 [INH, isoniazid, reference compound] | 0.12 (≈ 0.875 µM) | > 128 | 
27 | Cc1c(C(=O)OC(C)(C)C)[n+]([O-])c2cc(C(=O)OC(C)C)ccc2[n+]1[O-] [Compound T-066] | 68.6 (≈ 189 µM) | > 100 | LORA percentage in parentheses after the MIC bound [2]: 77%
28 | CCOC(=O)c1ccc2c(c1)[n+]([O-])c(C(N)=O)c(C)[n+]2[O-] [Compound T-045] | > 22 | 100 (≈ 344 µM) | MABA MIC [1]: 29.83 µg/mL
29 | CCCOC(=O)c1ccc2c(c1)[n+]([O-])c(C(C)=O)c(C)[n+]2[O-] [Compound T-126] | 3 (≈ 9.86 µM) |  | 
30 | COC(=O)c1cc2c(cc1OC)no[n+]2[O-] [Compound T-036] | > 100 |  | MABA MIC [1]: >128 µg/mL
31 | Cc1c(C(=O)c2ccccc2)[n+]([O-])c2cc(C(=O)OC(C)C)ccc2[n+]1[O-] [Compound T-098] | 4.59 (≈ 12.5 µM) | 2.87 (≈ 7.83 µM) | 
32 | CCCOC(=O)c1ccc2c(c1)[n+]([O-])c(C(C)=O)c(C(F)(F)F)[n+]2[O-] [Compound T-113] | 3 (≈ 8.37 µM) |  | 
33 | CCOC(=O)Cc1c(C(=O)OCC)[n+]([O-])c2cc(C(=O)OC(C)C)ccc2[n+]1[O-] [Compound T-067] | 3.41 (≈ 8.39 µM) | 2.47 (≈ 6.08 µM) | 
34 | CCOC(=O)c1c(C)[n+]([O-])c2ccc(C(=O)OC)cc2[n+]1[O-] [Compound T-013] | 0.47 (≈ 1.53 µM) | 0.54 (≈ 1.76 µM) | inhibitory effect on M. tuberculosis gyrase supercoiling [3]: none of the compounds showed an inhibitory effect
35 | CCOC(=O)c1c(C)[n+]([O-])c2ccc(C(=O)OC(C)C)cc2[n+]1[O-] [Compound T-065] | 0.7 (≈ 2.09 µM) | 0.5 (≈ 1.5 µM) | 
36 | CCOC(=O)c1ccc2c(c1)[n+]([O-])c(C(=O)CC)c(C(F)(F)F)[n+]2[O-] [Compound T-026] | > 22 | 2.5 (≈ 6.98 µM) | MABA MIC [1]: 22.5 µg/mL
37 | CCOC(=O)c1c(-c2ccccc2)[n+]([O-])c2ccc(C(=O)OC)cc2[n+]1[O-] [Compound T-042] | 1 (≈ 2.71 µM) | 0.5 (≈ 1.36 µM) | 
38 | CCOC(=O)c1ccc2c(c1)[n+]([O-])c(C(=O)c1ccccc1)c(C)[n+]2[O-] [Compound T-004] | 2.32 (≈ 6.58 µM) | 0.61 (≈ 1.73 µM) | 
39 | CC(=O)c1c(C)[n+]([O-])c2ccc(C(=O)OC(C)C)cc2[n+]1[O-] [Compound T-084] | 0.8 (≈ 2.63 µM) | 0.6 (≈ 1.97 µM) | 
40 | CC(C)OC(=O)c1ccc2c(c1)[n+]([O-])c(C(=O)c1ccccc1)c(C(F)(F)F)[n+]2[O-] [Compound T-071] | 1.19 (≈ 2.83 µM) | 0.64 (≈ 1.52 µM) | 
41 | Cc1c(C(N)=O)[n+]([O-])c2cc(C(=O)OC(C)C)ccc2[n+]1[O-] [Compound T-108] | 22.5 (≈ 73.7 µM) |  | inhibitory effect on M. tuberculosis gyrase supercoiling [3]: none of the compounds showed an inhibitory effect
42 | Cc1c(C(=O)Nc2ccccc2)[n+]([O-])c2cc(C(=O)OC(C)C)ccc2[n+]1[O-] [Compound T-097] | > 20 | > 20 | MABA percentage in parentheses after the MIC bound [1]: 6%; LORA percentage in parentheses after the MIC bound [2]: 33%
43 | CCCOC(=O)c1ccc2no[n+]([O-])c2c1 [Compound T-074] | 0.87 (≈ 3.92 µM) | 4.62 (≈ 20.8 µM) | 
